Assay results reported in article PMC6270420, “Antibacterial Activity of Salicylanilide 4-(Trifluoromethyl)benzoates” (Molecules, 2013).
≈ marks a conversion by molar mass, not a printed value. Where two headings read alike, the source gives them in different places.

Key:
[1] = tested on: Mycobacterium tuberculosis 331/88 (H37Rv); assay: Antimycobacterial MIC micromethod, Šula's medium; format: cell-based
[2] = tested on: Mycobacterium avium 330/88; assay: Antimycobacterial MIC micromethod; format: cell-based
[3] = tested on: Mycobacterium kansasii 235/80; assay: Antimycobacterial MIC micromethod; format: cell-based; settings: read-out: MIC M. kansasii 235/80
[4] = tested on: M. kansasii 6509/96 (clinically isolated strain); assay: Antimycobacterial MIC micromethod; format: cell-based; settings: Mycobacterium kansasii, read-out: MIC M. kansasii 6509/96
[5] = target: T1, mycobacterial isocitrate lyase (ICL1, Rv0467) (Mycobacterium tuberculosis, UniProt P9WKK7); assay: Isocitrate lyase inhibition assay (ICL1); format: biochemical, Mycobacterium tuberculosis H37Rv; settings: 10 μmol/L; read-out: % ICL inhibition at 10 μmol/L (± standard deviation)
T1 construct: His tag (from pET-28b(+)); made in house; host or cells: E. coli BL21(DE3), pET-28b(+) plasmid
T1 sequence (P9WKK7 1-428): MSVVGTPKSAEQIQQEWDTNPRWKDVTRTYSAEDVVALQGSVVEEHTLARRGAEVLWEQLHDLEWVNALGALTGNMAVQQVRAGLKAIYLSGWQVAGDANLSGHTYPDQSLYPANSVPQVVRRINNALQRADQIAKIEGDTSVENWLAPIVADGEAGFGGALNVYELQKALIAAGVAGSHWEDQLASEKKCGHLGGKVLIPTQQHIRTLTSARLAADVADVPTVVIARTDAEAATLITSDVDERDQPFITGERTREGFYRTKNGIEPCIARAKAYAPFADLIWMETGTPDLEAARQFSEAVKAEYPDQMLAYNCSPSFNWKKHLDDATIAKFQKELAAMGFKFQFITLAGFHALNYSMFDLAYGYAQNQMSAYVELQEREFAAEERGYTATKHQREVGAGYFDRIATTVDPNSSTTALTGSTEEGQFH

[6] = tested on: Enterococcus sp. J 14365/08; assay: Antibacterial microdilution broth method; format: cell-based; settings: read-out: MIC/IC90 Enterococcus sp. J 14365/08
Method: (§1) The in vitro antibacterial activity was assayed against eight Gram-positive and Gram-negative strains: Staphylococcus aureus CCM 4516/08, methicillin-resistant Staphylococcus aureus H 5996/08 (MRSA), Staphylococcus epidermidis H 6966/08, Enterococcus sp. J 14365/08; Escherichia coli CCM 4517, Klebsiella pneumoniae D 11750/08, ESBL-positive Klebsiella pneumoniae J 14368/08, and Pseudomonas aeruginosa CCM 1961.
(§2) The microdilution broth method modified according to standard M07-A07 in Mueller-Hinton broth (HiMedia Laboratories, Mumbai, India) adjusted to pH 7.4 (±0.2) was used. The tested compounds were dissolved in DMSO to the final concentrations ranging from […]. Benzylpenicillin (penicillin G) was used as a comparative drug. Bacterial inoculum in sterile water was prepared to match 0.5 McFarland scale ([…]). The minimum inhibitory concentrations were assayed as 90% (IC90) or higher reduction of growth when compared to the control. The determination of results was performed visually and spectrophotometrically (at 540 nm). The values of MICs were determined after 24 and 48 h of incubation in the darkness at 35 °C (±0.1) in a humid atmosphere.

[7] = tested on: Escherichia coli CCM 4517; assay: Antibacterial microdilution broth method; format: cell-based
Method: as §1, §2

[8] = tested on: Staphylococcus aureus CCM 4516/08; assay: Antibacterial microdilution broth method; format: cell-based; settings: read-out: MIC/IC90 S. aureus CCM 4516/08
Method: as §1, §2

[9] = tested on: Staphylococcus epidermidis H 6966/08; assay: Antibacterial microdilution broth method; format: cell-based; settings: read-out: MIC/IC90 S. epidermidis H 6966/08
Method: as §1, §2

[10] = tested on: methicillin-resistant Staphylococcus aureus H 5996/08 (MRSA); assay: Antibacterial microdilution broth method; format: cell-based; settings: read-out: MIC/IC90 MRSA H 5996/08
Method: as §1, §2

[11] = tested on: HepG2 cells; assay: Cytotoxicity evaluation (CellTiter 96 MTS); format: cell-based, human; settings: Homo sapiens, read-out: IC50 HepG2
Method: Seven esters and their parent salicylanilides with the most robust antimicrobial activity were tested for cytotoxicity in the human hepatocellular liver carcinoma cell line HepG2 (passages 21–24; ECACC, Salisbury, UK) using a standard colorimetric method measuring a tetrazolium salt reduction (CellTiter(R) 96 AQueous One Solution Assay, Promega G3580, Madison, WI, USA).
The cells were routinely cultured in Minimum Essentials Eagle Medium (Sigma-Aldrich, Darmstadt, Germany) supplemented with 10% foetal bovine serum (PAA; Biotech, Prague, Czech Republic), 1% of L-glutamine solution (Sigma-Aldrich), and non-essential amino acids solution (Sigma-Aldrich) in a humidified atmosphere containing 5% CO2 at 37 °C. For subculturing, the cells were harvested after trypsin/EDTA (Sigma-Aldrich) treatment at 37 °C. The cells treated with the tested substances were used as experimental groups. Untreated HepG2 cells were used as control groups.
The cells were seeded in density 1 × 10^4 cells per well in a 96-well plate with microscopic control. Next day, the cells were treated with each of the tested substances. […] The most of the tested compounds were prepared in incubation concentrations of 0.01–20 µM in triplicates. 4-(Trifluoromethyl)benzoic acid was applied in the concentrations of 10–4,000 µM in triplicates. The following types of controls were included: determination of 100% viability and 0% viability (the cells treated by 10% DMSO), no cell control and vehiculum controls. These checking samples were prepared in triplicates.
The treated cells were incubated together with controls at 37 °C for 24 h in 5% CO2 atmosphere. After this time reagent from the kit CellTiter 96 AQueous One Solution Cell Proliferation Assay was added. The CellTiter 96 assay is based on the reduction of tetrazolium salt MTS [3-(4,5-dimethylthiazol-2-yl)-5-(3-carboxymethoxyphenyl)-2-(4-sulfophenyl)-2H-tetrazolium] to water-soluble formazan dye by metabolically active cells. The reduction of the reagent is attributed to availability of NADH or NADPH. The decline in levels of these metabolically important compounds in the cell causes that the production of formazan is reduced. The tested plate was incubated for 2 h at 37 °C and 5% CO2 and after this time, the absorbance was recorded at 490 nm using a 96-well plate reader (TECAN, Infinite M200, Grödig, Austria).
The results were expressed as inhibitory concentration which is necessary to inhibit cell viability to 50% from the maximal (control) viability (IC50). A standard toxicological parameter IC50 was calculated in each of the tested substances using GraphPad Prism software (version 5.02; GraphPad Software Inc., San Diego, CA, USA).

[12] = tested on: Gram-positive cocci including MRSA; assay: Antibacterial microdilution, summary for Gram-positive cocci; format: cell-based; settings: Staphylococcus aureus, read-out: MICs against Gram-positive cocci
Method: as §1, §2

[13] = tested on: Mtb. 7357/1988; assay: microbe, parasite or virus in culture; format: cell-based; settings: Mycobacterium tuberculosis, read-out: MIC Mtb. 7357/1988
[14] = tested on: Mtb. 9449/2006; assay: microbe, parasite or virus in culture; format: cell-based; settings: Mycobacterium tuberculosis, read-out: MIC Mtb. 9449/2006
[15] = tested on: Mtb. 53/2009; assay: microbe, parasite or virus in culture; format: cell-based; settings: Mycobacterium tuberculosis, read-out: MIC Mtb. 53/2009
[16] = tested on: Mtb. 234/2005; assay: microbe, parasite or virus in culture; format: cell-based; settings: Mycobacterium tuberculosis, read-out: MIC Mtb. 234/2005
[17] = tested on: Mtb. Praha 1; assay: microbe, parasite or virus in culture; format: cell-based; settings: Mycobacterium tuberculosis, read-out: MIC Mtb. Praha 1
[18] = tested on: Mtb. Praha 131 (XDR-TB); assay: microbe, parasite or virus in culture; format: cell-based; settings: Mycobacterium tuberculosis, read-out: MIC Mtb. Praha 131 (XDR-TB)
[19] = tested on: Mycobacterium tuberculosis, M. avium and M. kansasii; assay: Antimycobacterial MIC, summary over all mycobacterial strains; format: cell-based; settings: range over all strains and times; read-out: MICs against all mycobacterial strains
[20] = 336 h, 14 d, read-out: MIC Mtb. 331/88
[21] = 504 h, 21 d, read-out: MIC Mtb. 331/88

O=C(Oc1cc(Cl)ccc1C(=O)Nc1ccc(C(F)(F)F)cc1)c1ccc(C(F)(F)F)cc1 [1p]
MIC [1, 20]: 2 µM (≈ 0.976 µg/mL)
MIC [1, 21]: 2 µM (≈ 0.976 µg/mL)
MIC ([2]; 330/88, 336 h, 14 d): 2 µM (≈ 0.976 µg/mL)
MIC ([2]; 330/88, 504 h, 21 d): 8 µM (≈ 3.9 µg/mL)
MIC ([3]; 235/80, 168 h, 7 d): 2 µM (≈ 0.976 µg/mL)
MIC ([3]; 235/80, 336 h, 14 d): 2 µM (≈ 0.976 µg/mL)
MIC ([3]; 235/80, 504 h, 21 d): 4 µM (≈ 1.95 µg/mL)
MIC ([4]; 168 h, 7 d): 1 µM (≈ 0.488 µg/mL)
MIC ([4]; 336 h, 14 d): 4 µM (≈ 1.95 µg/mL)
MIC ([4]; 504 h, 21 d): 4 µM (≈ 1.95 µg/mL)
inhibition at 10 µM [5]: 17 ± 2.3%
MIC ([6]; SP.J14365/08, 24 h): 0.49 µM (≈ 0.239 µg/mL)
MIC ([6]; SP.J14365/08, 48 h): 3.9 µM (≈ 1.9 µg/mL)
MIC ([7]; CCM4517, 24 h, read-out: MIC/IC90 E. coli CCM 4517): 31.2 µM (≈ 15.2 µg/mL)
MIC ([7]; CCM4517, 48 h, read-out: MIC/IC90 E. coli CCM 4517): 250 µM (≈ 122 µg/mL)
MIC ([7]; CCM4517, time not stated, read-out: MIC E. coli (partial susceptibility)): 31.2 µM (≈ 15.2 µg/mL)
MIC ([8]; CCM4516, 24 h): 0.49 µM (≈ 0.239 µg/mL)
MIC ([8]; CCM4516, 48 h): 0.98 µM (≈ 0.478 µg/mL)
MIC ([9]; H6966/08, 24 h): 0.49 µM (≈ 0.239 µg/mL)
MIC ([9]; H6966/08, 48 h): 0.98 µM (≈ 0.478 µg/mL)
MIC ([10]; 24 h): 0.49 µM (≈ 0.239 µg/mL)
MIC ([10]; 48 h): 0.98 µM (≈ 0.478 µg/mL)
IC50 ([11]; HepG2, 24 h, cytotoxicity): 1770 nM
MIC [12]: < 1 µM

O=C(Oc1ccc(Br)cc1C(=O)Nc1ccc(C(F)(F)F)cc1)c1ccc(C(F)(F)F)cc1 [1r]
MIC [1, 20]: 1 µM (≈ 0.532 µg/mL)
MIC [1, 21]: 1 µM (≈ 0.532 µg/mL)
MIC ([1]; time not stated, read-out: MIC against M. tuberculosis): 1 µM (≈ 0.532 µg/mL)
MIC ([2]; 330/88, 336 h, 14 d): 2 µM (≈ 1.06 µg/mL)
MIC ([2]; 330/88, 504 h, 21 d): 4 µM (≈ 2.13 µg/mL)
MIC ([3]; 235/80, 168 h, 7 d): 1 µM (≈ 0.532 µg/mL)
MIC ([3]; 235/80, 336 h, 14 d): 2 µM (≈ 1.06 µg/mL)
MIC ([3]; 235/80, 504 h, 21 d): 4 µM (≈ 2.13 µg/mL)
MIC ([4]; 168 h, 7 d): 1 µM (≈ 0.532 µg/mL)
MIC ([4]; 336 h, 14 d): 2 µM (≈ 1.06 µg/mL)
MIC ([4]; 504 h, 21 d): 4 µM (≈ 2.13 µg/mL)
MIC ([13]; 336 h): 1 µM (≈ 0.532 µg/mL)
MIC ([13]; 504 h): 1 µM (≈ 0.532 µg/mL)
MIC ([14]; 336 h): 1 µM (≈ 0.532 µg/mL)
MIC ([14]; 504 h): 1 µM (≈ 0.532 µg/mL)
MIC ([15]; 336 h): 1 µM (≈ 0.532 µg/mL)
MIC ([15]; 504 h): 2 µM (≈ 1.06 µg/mL)
MIC ([16]; 336 h): 0.5 µM (≈ 0.266 µg/mL)
MIC ([16]; 504 h): 1 µM (≈ 0.532 µg/mL)
MIC ([17]; 336 h): 0.5 µM (≈ 0.266 µg/mL)
MIC ([17]; 504 h): 1 µM (≈ 0.532 µg/mL)
MIC ([18]; 336 h): 0.5 µM (≈ 0.266 µg/mL)
MIC ([18]; 504 h): 1 µM (≈ 0.532 µg/mL)
inhibition at 10 µM [5]: ≥ 20%
IC50 ([11]; HepG2, 24 h): 2030 nM
MIC [19]: 1 to 4 µM (≈ 0.532 to 2.13 µg/mL)
